Measured values taken from patent publication US20220401514A1, “ANTIMICROBIAL, BACTERIOPHAGE-DERIVED POLYPEPTIDES AND THEIR USE AGAINST GRAM-NEGATIVE AND ACID-FAST BACTERIA” (CONTRAFECT CORPORATION, priority 2019, published 2022).
Read-outs that look alike come from different tables or passages of the source.

Assays:
S. maltophilia = assay: MIC against S. maltophilia isolates; type: cell-based, Stenotrophomonas maltophilia; conditions: S. maltophilia isolates (n per peptide in table)
In short: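 Chp peptides were tested on a set of S. maltophilia isolates (n = isolates per species), with minimal inhibitory concentrations given in μg/mL.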

[1] = test system: P. aeruginosa strain CFS-1292; assay: MIC in presence and absence of Survanta pulmonary surfactant; type: cell-based, Pseudomonas aeruginosa
[2] = test system: carbapenem-resistant P. aeruginosa clinical isolate CFS-1292; assay: MIC by modified CLSI broth microdilution against P. aeruginosa CFS-1292 (CAA, CAA + human serum); type: cell-based, Pseudomonas aeruginosa; conditions: 100% CAA; 1st run or single value
[3] = test system: P. aeruginosa strain CFS-1292; assay: MIC in presence of divalent cations (calcium chloride, magnesium sulfate); type: cell-based, Pseudomonas aeruginosa
Method: Next, Chp peptides were evaluated in the presence of different divalent cations. […]; (2) in the presence of 2 mM calcium chloride alone; (3) in the presence of 1 mM magnesium sulfate alone; and (4) in the presence of both 2 mM calcium chloride and 1 mM magnesium sulfate. […]

[4] = test system: P. aeruginosa strain CFS-1292; assay: MIC at pH 6, pH 7 and pH 8; type: cell-based, Pseudomonas aeruginosa
Method: The Chp peptides were further evaluated at varying pH levels. The MIC values were determined at pH 6, pH 7, and pH 8 for 18 different Chp peptides against P. aeruginosa strain CFS-1292. […]

Klebsiella pneumoniae [5] = type: cell-based
Method: (§1) Determination of Minimal Inhibitory Concentrations (MIC).
Additional MIC testing was performed for several peptides against the ESKAPE pathogens Escherichia coli, Enterobacter cloacae, Klebsiella pneumoniae, and Acinetobacter baumannii, in CAA supplemented with human serum (Table D).

Klebsiella pneumoniae [6] = assay: microbe, parasite or virus in culture; type: cell-based; conditions: CAA without human serum
Salmonella typhimurium = assay: MIC against Salmonella typhimurium; type: cell-based
Pseudomonas aeruginosa = assay: microbe, parasite or virus in culture; type: cell-based; conditions: for MIC: CAA without human serum
Acinetobacter baumannii = assay: microbe, parasite or virus in culture; type: cell-based
[7] = test system: carbapenem-resistant bacterial strains; assay: organism not typed; type: cell-based
From the text: as §1

Enterobacter cloacae = assay: microbe, parasite or virus in culture; type: cell-based
In short: (§2)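 Read-out is the minimal inhibitory concentration of each peptide, measured in serum-supplemented CAA.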

Escherichia coli = assay: microbe, parasite or virus in culture; type: cell-based
In short: as §2

[8] = test system: P. aeruginosa strain CFS-1292; assay: MIC in presence and absence of NaCl (140 mM); type: cell-based, Pseudomonas aeruginosa
Method: Certain Chp peptides were evaluated over a range of physiological NaCl levels and pH values, and were further evaluated for activity in the presence of various divalent cations.

M. smegmatis = assay: 45 hr MIC against M. smegmatis (NTM), Mueller Hinton broth; type: cell-based, Mycobacterium smegmatis; conditions: M. smegmatis MC^2 155, Run #1
[9] = Stability assessment in 100% CAA; type: in vitro ADME; parameters: unit not given beside the values
Method: Stability was assessed after incubation in 100% human serum at 37° C. after 10 minutes, 1 hour, and 2 hours.
Stability assessment was further conducted in 100% CAA and rabbit serum using the same methodology discussed above.

[10] = K. pneumoniae isolates (n per peptide in table)
[11] = P. aeruginosa isolates (n per peptide in table)
[12] = A. baumannii isolates (n per peptide in table)
[13] = E. cloacae isolates (n per peptide in table)
[14] = E. coli isolates (n per peptide in table)

Sequence: MARSRRRMSKRSSRRSFRKYAKTHKRNFKARSMRGGIRL [Ecp1]
- MIC50 (S. maltophilia): 8 µg/mL
- MIC100 (S. maltophilia): >8 µg/mL
- MIC ([1]; CAA media + 0.19 mg/mL Survanta): 0.5 µg/mL
- MIC ([1]; CAA media + […] Survanta): 0.5 µg/mL
- MIC ([1]; CAA media alone): 0.5 µg/mL
- MIC (μg/mL) against CFS-1292 in 100% CAA (1st run/2nd run) [2]: 0.5 µg/mL
- MIC ([3]; CAA media + 1 mM MgSO4): 0.5 µg/mL
- MIC ([3]; CAA media + 2 mM CaCl2): 1 µg/mL
- MIC ([3]; CAA media + + 1 mM MgSO4): 1 µg/mL
- MIC ([3]; CAA media alone): 0.5 µg/mL
- MIC ([4]; CAA media (pH 7)): 0.5 µg/mL
- MIC ([4]; pH 6): 1 µg/mL
- MIC ([4]; pH 7): 1 µg/mL
- MIC ([4]; pH 8): 1 µg/mL
- MIC50 (Klebsiella pneumoniae [5]; [10]): 1 µg/mL
- MIC100 (Klebsiella pneumoniae [5]; [10]): 2 µg/mL
- MIC Range (Klebsiella pneumoniae [5]; [10]): 1 to 2 µg/mL
- MIC (Klebsiella pneumoniae [5]; Klebsiella pneumoniae HM-44, CAA supplemented with human serum): 0.5 µg/mL
- MIC (Klebsiella pneumoniae [6]; Klebsiella pneumoniae (ATCC 10031, MIC control strain), RSC 814): 2 µg/mL
- MIC (Klebsiella pneumoniae [6]; Klebsiella pneumoniae (g2-3 HM35K), RSC 1138): 2 µg/mL
- MIC (Klebsiella pneumoniae [6]; Klebsiella sp. (HM-44; colon, Crohn's disease), RSC 1139): 2 µg/mL
- MIC (Klebsiella pneumoniae [6]; Klebsiella spp. (HM-223; gut of Crohn's disease patient), RSC 1131): 2 µg/mL
- MIC (Salmonella typhimurium; Salmonella typhimurium): 2 µg/mL
- MIC (Salmonella typhimurium; Salmonella typhimurium LT2 (lab isolate), RSC 27, CAA without human serum): 2 µg/mL
- MIC (Pseudomonas aeruginosa; P. aeruginosa 453 (Human clinical isolate, HSS), RSC 1292): 2 µg/mL
- MIC (Pseudomonas aeruginosa; P. aeruginosa (ATCC 14213, human hip wound), RSC 1111): 2 µg/mL
- MIC (Pseudomonas aeruginosa; P. aeruginosa (ATCC 15152, abscess in middle ear), RSC 1110): 1 µg/mL
- MIC (Pseudomonas aeruginosa; P. aeruginosa (ATCC 15692, infected wound), RSC 489): 2 µg/mL
- MIC (Pseudomonas aeruginosa; P. aeruginosa (ATCC 15692, infected wound), RSC 1115): 2 µg/mL
- MIC (Pseudomonas aeruginosa; P. aeruginosa (ATCC 17646, human liver abscess), RSC 1109): 2 µg/mL
- MIC (Pseudomonas aeruginosa; P. aeruginosa (ATCC 19142, tracheobronchial secretion), RSC 1108): 1 µg/mL
- MIC (Pseudomonas aeruginosa; P. aeruginosa (ATCC 25102, bacteriophage host), RSC 1114): 2 µg/mL
- MIC (Pseudomonas aeruginosa; P. aeruginosa (ATCC 27853, MIC control strain), RSC 815): 2 µg/mL
- MIC (Pseudomonas aeruginosa; P. aeruginosa (ATCC BAA-27, lab strain), RSC 1113): 4 µg/mL
- MIC (Pseudomonas aeruginosa; P. aeruginosa (PAO1, alternate source, HER1018), RSC 490): 2 µg/mL
- MIC50 (Pseudomonas aeruginosa; [11]): 4 µg/mL
- MIC100 (Pseudomonas aeruginosa; [11]): >8 µg/mL
- MIC50 (Acinetobacter baumannii; [12]): 0.5 µg/mL
- MIC100 (Acinetobacter baumannii; [12]): 1 µg/mL
- MIC Range (Acinetobacter baumannii; [12]): 0.125 to 2 µg/mL
- MIC (Acinetobacter baumannii; Acinetobacter baumannii (clinical isolate HSS), RSC 30, CAA without human serum): 2 µg/mL
- MIC (Acinetobacter baumannii; Acinetobacter baumannii (clinical isolate HSS), RSC 32, CAA without human serum): 2 µg/mL
- MIC (Acinetobacter baumannii; Acinetobacter baumannii ATCC BAA 747, CAA supplemented with human serum): 1 µg/mL
- MIC ([7]; carbapenem-resistant isolate PA19): 1 µg/mL
- MIC ([7]; carbapenem-resistant isolate PA20): >8 µg/mL
- MIC ([7]; carbapenem-resistant isolate PA21): >8 µg/mL
- MIC ([7]; carbapenem-resistant isolate PA22): 8 µg/mL
- MIC ([7]; carbapenem-resistant isolate PA23): 4 µg/mL
- MIC ([7]; carbapenem-resistant isolate PA24): 4 µg/mL
- MIC ([7]; carbapenem-resistant isolate WLC-452): 2 µg/mL
- MIC50 (Enterobacter cloacae; [13]): 0.5 µg/mL
- MIC100 (Enterobacter cloacae; [13]): 2 µg/mL
- MIC Range (Enterobacter cloacae; [13]): 0.25 to 4 µg/mL
- MIC (Enterobacter cloacae; Enterobacter cloacae (ATCC 13047, MIC control strain), RSC 1240, CAA without human serum): 2 µg/mL
- MIC (Enterobacter cloacae; Enterobacter cloacae ATCC 13047, CAA supplemented with human serum): 16 µg/mL
- MIC (Escherichia coli; E. coli (ATCC 25922, MIC control strain), RSC 813, CAA without human serum): 2 µg/mL
- MIC (Escherichia coli; E. coli (HM346, colon, Crohn's disease), RSC 1212, CAA without human serum): 2 µg/mL
- MIC50 (Escherichia coli; [14]): 0.5 µg/mL
- MIC100 (Escherichia coli; [14]): 2 µg/mL
- MIC Range (Escherichia coli; [14]): 0.25 to 4 µg/mL
- MIC (Escherichia coli; Escherichia coli ATCC 25922, CAA supplemented with human serum): 0.25 µg/mL
- Fold change in MIC ([8]; CAA + 140 mM NaCl versus CAA without added NaCl): 4
- MIC, CAA + 140 mM NaCl ([8]; CAA + 140 mM NaCl, P. aeruginosa CFS-1292): 2 µg/mL
- MIC, CAA (no added NaCl) ([8]; CAA, no added NaCl, P. aeruginosa CFS-1292): 0.5 µg/mL
- 45 hr MIC (M. smegmatis): 4 µg/mL
- MIC (100% CAA) [9]: 0.25
